Tests used:
Assay type in all cases: cell-based
LNCaP = assay: Cell growth inhibition assay, prostate cancer cell line LNCaP (medium with 10 ng/mL IL-6); details: Homo sapiens, medium supplemented with 10 ng/mL of IL-6, 10,000 cells/well
Description: (§1) The inhibitory effects of the compounds of the present invention against the growth of cancer cells were evaluated as shown below. The cancer cell lines including stomach cancer cell line (AGS), breast cancer cell lines (MDA-MB-231, MDA-MB-468, and BT-549), prostate cancer cell lines (LNCaP and DU-145), colon cancer cell line (HCT116), ovarian cancer cell line (SW626), liver cancer cell line (Hep3B), kidney cancer cell line (ACHN), lung cancer cell line (NCI-H23) and blood cancer cell lines (HEL92.1.7 and U266) were cultured under the protocol provided by each supplier. A medium supplemented with 10 ng/mL of IL-6 was used for LNCaP, a prostate cancer cell line, when treated with a drug. Each type of cells to be used in experiments were sub-cultured in a 96-well plate by counting the exact number of cells using Tali™ Image-based Cytometer (Life Technologies). In a 96-well plate, AGS, HCT116, and DU-145 were employed with 3,000 cells/well; NCI-H23, SW626, Hep3B, ACHN, BT-549, MDA-MB-231, HEL92.1.7, and U266 were employed with 5,000 cells/well; and LNCaP and MDA-MB-468 were employed with 10,000 cells/well. The cells were treated with the compounds listed in Examples which were diluted in various concentrations. Upon completion of the compounds treatment, AGS, HCT116, SW626, DU145, NCI-H23, Hep3B, ACHN, BT-549, LNCaP, HEL92.1.7, and U266 cells were cultured at 37° C. under 5% CO2 for from 72 to 96 hours, and MDA-MB-231 and MDA-MB-468 cells were cultured at 37° C. in air for from 72 to 96 hours. Subsequently, the cells were observed under microscope and drug precipitation and particular findings were investigated and recorded. And then, the 96-well plate was placed at room temperature for 30 minutes, added with 20 μL/well of CellTiter-Glo solution (Cat No. G7573, Promega) and shaken for 10 minutes, followed by being subjected to the measurement using PHERAstar™ microplate reader (BMG LABTECH) according to the supplier's general luminometer protocol. Wells where only culture liquid added without cell plating were used as a negative control, whereas wells where culture liquid containing 0.1% DMSO instead of the compounds listed in Examples were used as a positive control.

STAT3 = target: T1, STAT3 (Homo sapiens, UniProt P40763); assay: STAT3 reporter gene assay (luciferase), LNCaP stable cell line (pSTAT3-TA-luc), IL-6 stimulation
T1 construct: plasmid pSTAT3-TA-luc), which contains a stably operating STAT3 promoter; endogenous in cells
T1 sequence (P40763 whole entry): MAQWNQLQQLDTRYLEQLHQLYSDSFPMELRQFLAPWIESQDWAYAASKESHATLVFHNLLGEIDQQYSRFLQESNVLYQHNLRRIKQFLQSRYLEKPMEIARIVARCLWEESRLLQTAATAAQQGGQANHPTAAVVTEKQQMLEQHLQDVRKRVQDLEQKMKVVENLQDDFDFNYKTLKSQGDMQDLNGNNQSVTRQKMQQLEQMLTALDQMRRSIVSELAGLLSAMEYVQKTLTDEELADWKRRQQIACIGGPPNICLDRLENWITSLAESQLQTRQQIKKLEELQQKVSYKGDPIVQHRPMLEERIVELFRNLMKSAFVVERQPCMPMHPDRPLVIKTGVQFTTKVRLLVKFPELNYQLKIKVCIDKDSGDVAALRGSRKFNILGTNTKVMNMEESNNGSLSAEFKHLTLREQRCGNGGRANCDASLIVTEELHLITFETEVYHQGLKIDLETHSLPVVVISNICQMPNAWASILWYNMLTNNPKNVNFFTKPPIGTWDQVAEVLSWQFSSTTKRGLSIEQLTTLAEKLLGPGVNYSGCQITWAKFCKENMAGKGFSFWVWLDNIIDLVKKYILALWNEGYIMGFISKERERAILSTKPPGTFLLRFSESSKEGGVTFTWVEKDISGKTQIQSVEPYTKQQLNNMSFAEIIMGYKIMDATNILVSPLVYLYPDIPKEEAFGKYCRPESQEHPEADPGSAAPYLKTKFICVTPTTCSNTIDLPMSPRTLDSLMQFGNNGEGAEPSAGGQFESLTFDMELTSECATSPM
Description: 1-1) Experiment on the Inhibition of STAT3 Activity
A human prostate cancer cell line (LNCaP stable cell line; plasmid pSTAT3-TA-luc), which contains a stably operating STAT3 promoter, was cultured in RPMI1640 medium (Cat No. 11875, Life Technologies) containing 10% fetal bovine serum (FBS) (Cat No. SH30396, Thermo Scientific) and 150 μg/mL G-418 solution (Cat No. 04 727 894 001, Roche). The reporter gene assay using LNCaP stable cell line was performed in RPMI1640 medium containing 3% DCC-FBS without G-418 solution. LNCaP stable cells were plated in two (2) white 96-well plates with 30,000 cells/50 μL in each well. The cells were cultured at 37° C., under 5% CO2 for 24 hours, and then treated with the compounds listed in Examples which were diluted in various concentrations. Subsequently, IL-6 was added to each well with a final concentration of 10 ng/mL. Upon completion of the treatment with the compounds and IL-6, the cells were cultured at 37° C., under 5% CO2 for from 24 to 48 hours. The plates were observed under microscope and drug precipitation and particular findings were investigated and recorded.
The luciferase assay and the cell viability assay were performed respectively with one of the two plates. For the luciferase assay, the liquid media in the 96-well plate was removed, and then, 20 μL of passive cell lysis buffer was added to each well. After shaking the plate for 30 minutes, luciferase activities of each well were measured in a PHERAstar™ microplate reader (BMG LABTECH) using a luciferase assay system (Cat No. E1501, Promega). For the cell viability assay, the 96-well plate was placed at room temperature for 30 minutes, added with 20 μL/well of CellTiter-Glo solution (Cat No. G7573, Promega), and shaken for 10 minutes in order to measure cytotoxicity caused by the compounds listed in Examples with a PHERAstar™ microplate reader (BMG LABTECH). Wells without 0.1% DMSO and stimulation were used as a negative control and wells with 0.1% DMSO and stimulation were used as a positive control.

DU-145 = assay: Cell growth inhibition assay, prostate cancer cell line DU-145; details: Homo sapiens, DU-145 prostate cancer cell line
Description: as §1

| SMILES | IC50 (LNCaP) | IC50 (STAT3) | IC50 (DU-145) |
| --- | --- | --- | --- |
| CC(C)Oc1cc(CN2CCOCC2)cc(C(C)(C)c2cc(F)cc(NC(=O)c3cc4cc(NS(C)(=O)=O)ccc4s3)c2)c1 [Example 137, N-(3-fluoro-5-(2-(3-isopropoxy-5-(morpholinomethyl)phenyl)propan-2-yl)phenyl)-5-(methylsulfonamido)benzo[b]thiophene-2-carboxamide] | 0.4 µM | 0.22 µM | 0.1 µM |
| CC(C)Oc1cc(OC(F)(F)F)cc(C(C)(C)c2cc(Br)cc(NC(=O)c3cc4cc(OP(=O)(O)O)ccc4s3)c2)c1 [Example 192, 2-((3-bromo-5-(2-(3-isopropoxy-5-(trifluoromethoxy)phenyl)propan-2-yl)phenyl)carbamoyl)benzo[b]thiophen-5-yl dihydrogen phosphate] |  | 0.75 µM |  |
| CS(=O)(=O)Nc1ccc2sc(C(=O)Nc3cc(Cl)cc(Oc4cccc(Cl)c4)c3)cc2c1 [Example 456, N-(3-chloro-5-(3-chlorophenoxy)phenyl)-5-(methylsulfonamido)benzo[b]thiophene-2-carboxamide] | 0.3 µM | 0.19 µM | 0.25 µM |
| CS(=O)(=O)Nc1cc2cc(C(=O)Nc3cc(Cl)cc(Oc4nccs4)c3)sc2cc1Cl [Example 471, 6-chloro-N-(3-chloro-5-(thiazol-2-yloxy)phenyl)-5-(methylsulfonamido)benzo[b]thiophene-2-carboxamide] | 0.11 µM | 0.075 µM | 0.049 µM |
| CS(=O)(=O)Nc1ccc2sc(C(=O)Nc3cc(Cl)nc(Oc4ccc(C(F)(F)F)cc4)c3)cc2c1 [Example 495, N-(2-chloro-6-(4-(trifluoromethyl)phenoxy)pyridin-4-yl)-5-(methylsulfonamido)benzo[b]thiophene-2-carboxamide] |  | 0.08 µM |  |
| CS(=O)(=O)Nc1ccc2[nH]c(C(=O)Nc3cccc(-c4ccccc4C(F)(F)F)c3)cc2c1 [Example 259, 5-(methylsulfonamido)-N-(2′-(trifluoromethyl)-[1,1′-biphenyl]-3-yl)-1H-indole-2-carboxamide] | 2 µM | 1.1 µM |  |
| CS(=O)(=O)Nc1ccc2sc(C(=O)Nc3cc(Cl)nc(Oc4ccc(C(F)(F)F)nc4)c3)cc2c1 [Example 493, N-(2-chloro-6-((6-(trifluoromethyl)pyridin-3-yl)oxy)pyridin-4-yl)-5-(methylsulfonamido)benzo[b]thiophene-2-carboxamide] |  | 0.14 µM |  |
| CS(=O)(=O)Nc1cc2cc(C(=O)Nc3cc(Cl)nc(Oc4ccc(Cl)cc4)c3)sc2cc1Cl [Example 490, 6-chloro-N-(2-chloro-6-(4-chlorophenoxy)pyridin-4-yl)-5-(methylsulfonamido)benzo[b]thiophene-2-carboxamide] |  | 0.016 µM |  |
| CS(=O)(=O)Nc1cc2cc(C(=O)Nc3cc(Cl)nc(Oc4ccc(Cl)nc4)c3)sc2cc1Cl [Example 492] |  | 0.008 µM |  |
| CS(=O)(=O)Nc1cc2cc(C(=O)Nc3cc(Cl)nc(Oc4ccc(C(F)(F)F)nc4)c3)sc2cc1Cl [Example 494, 6-chloro-N-(2-chloro-6-((6-(trifluoromethyl)pyridin-3-yl)oxy)pyridin-4-yl)-5-(methylsulfonamido)benzo[b]thiophene-2-carboxamide] |  | 0.018 µM |  |
| COc1cc2sc(C(=O)Nc3cc(Cl)cc(Oc4ccc(Cl)cc4)c3)cc2cc1NS(C)(=O)=O [Example 498, N-(3-chloro-5-(4-chlorophenoxy)phenyl)-6-methoxy-5-(methylsulfonamido)benzo[b]thiophene-2-carboxamide] |  | 0.06 µM |  |
| CS(=O)(=O)Nc1ccc2sc(C(=O)Nc3cc(Cl)nc(Oc4ccc(Cl)nc4)c3)cc2c1 [Example 491, N-(2-chloro-6-((6-chloropyridin-3-yl)oxy)pyridin-4-yl)-5-(methylsulfonamido)benzo[b]thiophene-2-carboxamide] |  | 0.13 µM |  |
| CC(C)(c1cccc(F)c1)c1cc(Cl)cc(NC(=O)c2cc3cc(NS(C)(=O)=O)ccc3s2)c1 [Example 65, N-(3-chloro-5-(2-(3-fluorophenyl)propan-2-yl)phenyl)-5-(methylsulfonamido)benzo[b]thiophene-2-carboxamide] |  | 0.064 µM | 0.005 µM |

More lines, now with the values ahead:

| IC50 (LNCaP) | IC50 (STAT3) | IC50 (DU-145) | SMILES |
| --- | --- | --- | --- |
| 0.025 µM | 0.018 µM | 0.011 µM | CC(C)Oc1cc(OC(F)(F)F)cc(C(C)(C)c2cc(I)cc(NC(=O)c3cc4cc(NS(C)(=O)=O)ccc4s3)c2)c1 [Example 213, N-(3-iodo-5-(2-(3-isopropoxy-5-(trifluoromethoxy)phenyl)propan-2-yl)phenyl)-5-(methylsulfonamido)benzo[b]thiophene-2-carboxamide] |
| 0.002 µM | 0.005 µM | 0.001 µM | CC(C)Oc1cc(OC(F)(F)F)cc(C(C)(C)c2cc(Cl)cc(NC(=O)c3cc4cc(NS(C)(=O)=O)c(Cl)cc4s3)c2)c1 [Example 105, 6-chloro-N-(3-chloro-5-(2-(3-isopropoxy-5-(trifluoromethoxy)phenyl)propan-2-yl)phenyl)-5-(methylsulfonamido)benzo[b]thiophene-2-carboxamide] |
| 0.41 µM | 0.27 µM | 0.15 µM | CC(C)Oc1cc(CN2CCN(S(C)(=O)=O)CC2)cc(C(C)(C)c2cc(Cl)cc(NC(=O)c3cc4cc(NS(C)(=O)=O)ccc4s3)c2)c1 [Example 128, N-(3-chloro-5-(2-(3-isopropoxy-5-((4-(methylsulfonyl)piperazin-1-yl)methyl)phenyl)propan-2-yl)phenyl)-5-(methylsulfonamido)benzo[b]thiophene-2-carboxamide] |
|  | 0.009 µM |  | CS(=O)(=O)Nc1cc2cc(C(=O)Nc3cc(Cl)nc(Oc4ccc(C(F)(F)F)cc4)c3)sc2cc1Cl [Example 496, 6-chloro-N-(2-chloro-6-(4-(trifluoromethyl)phenoxy)pyridin-4-yl)-5-(methylsulfonamido)benzo[b]thiophene-2-carboxamide] |
|  | 0.005 µM |  | COc1cc2sc(C(=O)Nc3cc(Cl)cc(C(C)(C)c4ccc(Cl)cc4)c3)cc2cc1NS(C)(=O)=O [Example 497, N-(3-chloro-5-(2-(4-chlorophenyl)propan-2-yl)phenyl)-6-methoxy-5-(methylsulfonamido)benzo[b]thiophene-2-carboxamide] |
|  | 2.1 µM | 0.17 µM | CC(C)Oc1cc(OC(F)(F)F)cc(C(C)(C)c2cc(Cl)cc(NC(=O)c3cc4c(s3)CCN(S(C)(=O)=O)C4)c2)c1 [Example 97, N-(3-chloro-5-(2-(3-isopropoxy-5-(trifluoromethoxy)phenyl)propan-2-yl)phenyl)-5-(methylsulfonyl)-4,5,6,7-tetrahydrothieno[3,2-c]pyridine-2-carboxamide] |
|  | 4.6 µM | > 1.1 µM | CC(C)Oc1cc(OC(F)(F)F)cc(C(C)(C)c2cc(Cl)cc(NC(=O)c3cc(NS(C)(=O)=O)cs3)c2)c1 [Example 102, N-(3-chloro-5-(2-(3-isopropoxy-5-(trifluoromethoxy)phenyl)propan-2-yl)phenyl)-4-(methylsulfonamido)thiophene-2-carboxamide] |

Reference: patent publication US10562912B2 (C&C Research Laboratories, priority 2013, dated 2020)
